Several values for one entry are separate records, joined by “and”; a condition that tells them apart may be missing. Equal values may be shown once. Read-outs that look alike come from different tables or passages of the source.
Columns and labels:
ovulation [1] = conditions: 21-day use; cited from earlier work
[2] = test system: adult female rats with normal cycles; assay: Ovulation inhibition test on rats; format: in vivo, rat; conditions: 5 animals; for Ovulation count, absolute / Ovulation count, mean: 4 days
Description: The efficacy of the composition according to the invention was ascertained by ovulation-inhibiting studies carried out on adult female rats with normal cycles. First, using 5 dose groups plus placebo (0.003 mg, 0.01 mg, 0.03 mg, 0.1 mg and 0.3 mg), the limit dose of levonorgestrel (LNG) was determined at which there is still no ovulation-inhibiting effect.
With the dose of LNG thus determined (0.01 mg), a comparison test was then carried out in which the ovulation-inhibiting effect of LNG, placebo, meloxicam, piroxicam, and the combination of LNG and meloxicam, was compared against the composition, according to the invention, of LNG plus piroxicam.
With the onset of the metestrus, 5 animals in each case were treated on four successive days with (a) placebo, (b) 0.01 mg of LNG, (c) 2 mg of piroxicam, (d) 0.01 mg of LNG and 2 mg of piroxicam, (e) 2 mg of meloxicam, and (f) […] of LNG and 3 mg of meloxicam. LNG was given by s.c. administration, and the COX inhibitor was given orally (p.o.).
In the following test, female rats weighing between 200 and 220 g were used. The animals were housed in macrolon cages in rooms under controlled lighting conditions (12 hours of darkness, 12 hours of light), were fed a standard diet and had access to water ad libitum.
Levonorgestrel was dissolved in benzyl benzoate/castor oil (1+4 v/v), and the daily dose was given by s.c. administration in a volume of 1 ml/kg body weight.
The COX inhibitors were suspended in a carrier liquid (85 mg of MyrjR53 (2-hydroxyethyl octadecanoate; CAS no. 9004-99-3) in 100 ml of 0.9% w/v NaCl solution), and the daily dose corresponding to the treatment group was administered orally in a volume of 2 ml/kg body weight.
(§1) Two cycles were monitored using vaginal smears before the start of the test. Only animals with a regular 4-day cycle were entered in the test. The allocation to the treatment groups was randomized. Starting in the metestrus, the test substance was administered for 4 days (days 1-4) and the cycle continued to be monitored. On day 3 of treatment (proestrus), a retrobulbar blood sample was taken at 9.00 h and from 18.30 h in order to determine the luteinizing hormone (LH). On day 4 (after administration), the animals with vaginal smears showing them in estrus or metestrus underwent unilateral ovariectomy under anaesthetic. Crush preparations were made from the tubes and were examined under a microscope for the presence of oocytes. On day 5, all the animals (the intact animals and those having undergone unilateral ovariectomy) were sacrificed, and the tubes of the animals in estrus and metestrus were prepared and examined in the same way. […] By contrast, the COX inhibitors on their own provide only partial suppression of ovulation.
(§2) The test set-up corresponds to the one described in Example 1.

[3] = test system: adult female rats with normal cycles; assay: Ovulation inhibition test on rats; format: in vivo, rat
ovulation [4] = conditions: cited from earlier work
[5] = test system: ovulated cumulus-oocyte complexes; assay: In vitro fertilization rate of ovulated cumulus-oocyte complexes after in vivo treatment (Example 3); design: species or system mice; conditions: n=5 animals
Description: Substances can influence fertility by reducing the fertilizability of oocytes or cumulus-oocyte complexes. In order to investigate such effects, substances can be administered in vivo and, after ovulation from cumulus/oocyte complexes, can be subjected to in vitro fertilization. The in vitro fertilization rate, with no further test substance being added, allows conclusions to be drawn regarding the in vivo effects of the test substances.
Immature female mice (strain: B6D2F1, Charles River, Suelzfeld, age: 19-25 days) were housed in macrolon cages in rooms under controlled lighting conditions (12 hours of darkness, 12 hours of light), were fed a standard diet and had access to water ad libitum. The mice were primed with PMSG (Pregnant Mare Serum Gonadotropin) (10 IU/animal i.p.). After 48 hours, an ovulation-triggering stimulus was induced in the animals by administration of 10 IU/animal i.p. The COX inhibitors were suspended in a carrier liquid (85 mg MyrjR53 (2-hydroxyethyl octadecanoate; CAS no. 9004-99-3) in 100 ml of 0.9% w/v NaCl solution), and the daily dose corresponding to the treatment group (n=5 animals per group) was administered in a volume of 0.2 ml p.o. 8 hours before and together with hCG. Fourteen hours after hCG administration, the animals were sacrificed. Ovulated oocytes and cumulus-oocyte complexes were recovered from the ovarian bursa and/or oviduct and subjected to in vitro fertilization, with a sperm count of 40,000 sperm/0.5 ml for 1 hour being used for the fertilization. Twenty-four hours after incubation with the sperm, the number of fertilized oocytes was established and the percentage fertilization rate determined.

[6] = test system: serum progesterone concentration; assay: Serum progesterone concentration in proestrus at 19.00 h (Example 2); format: in vivo, rat
Description: This can be seen as an indicator of the efficiency of the LH peak in changing from a predominantly estrogen-producing ovary (before the LH peak) to a predominantly progesterone-producing ovary (caused by the LH peak). […] By contrast, the literature describes that other COX inhibitors have no effect on the hormonal levels [Pall et al.; Human Reproduction vol. 16, no. 7, pp 1323-1328 (2001); Bata et al., J Clin Pharmacol (2006) 46:925-932]. […] The ovulation rates in the combination with 0.01 mg of levonorgestrel and 0.5 mg of piroxicam (31 oocytes), with 1 mg of piroxicam (19 oocytes) and with 2 mg of piroxicam (0 oocytes) were much lower here and, in the highest dose, even led to complete anovulation (10 animals per group).
as §1, §2

[7] = 25 mg on 9 successive days (Pall et al.)

C#C[C@]1(OC(C)=O)CC[C@H]2[C@@H]3CCC4=CC(=NO)CC[C@@H]4[C@H]3CC[C@@]21CC (mixture of isomers) [Norgestimate (NGM), Norgestimate]
minimal dose for inhibition of ovulation, p.o. dose/day (ovulation [1]): 180-250 μg^31

CC(=O)O[C@]1(C(C)=O)CC[C@H]2[C@@H]3C=C(Cl)C4=CC(=O)[C@@H]5C[C@@H]5[C@]4(C)[C@H]3CC[C@@]21C [Cyproterone acetate (CPA), Cyproterone acetate]
minimal dose for inhibition of ovulation, p.o. dose/day (ovulation [1]): 1 mg^33

C#C[C@]1(O)CC[C@H]2[C@@H]3CCC4=CCCC[C@@H]4[C@H]3C(=C)C[C@@]21CC [Desogestrel (DSG), Desogestrel]
minimal dose for inhibition of ovulation, p.o. dose/day (ovulation [1]): 60 μg^28

C[C@]12CCC3=C4CCC(=O)C=C4CC[C@H]3[C@@H]1CC[C@@]2(O)CC#N [Dienogest (DNG), Dienogest]
minimal dose for inhibition of ovulation, p.o. dose/day (ovulation [1]): 1-2 mg^29

C[C@]12CCC(=O)C=C1[C@@H]1C[C@@H]1[C@H]1[C@@H]3[C@@H]4C[C@@H]4[C@@]4(CCC(=O)O4)[C@@]3(C)CC[C@@H]12 [Drospirenone (DRSP), Drospirenone]
minimal dose for inhibition of ovulation, p.o. dose/day (ovulation [1]): 2 mg^33

CC(=O)[C@H]1CC[C@H]2[C@@H]3C=CC4=CC(=O)CC[C@@]4(C)[C@@H]3CC[C@]12C [Dydrogesterone]
minimal dose for inhibition of ovulation, p.o. dose/day (ovulation [1]): >30 mg^33

C#C[C@]1(O)CC[C@H]2[C@@H]3CCC4=C[C@@H](O)CC[C@@H]4[C@H]3CC[C@@]21C [Ethynodiol]
minimal dose for inhibition of ovulation, p.o. dose/day (ovulation [1]): 2 mg33

C#C[C@]1(O)C=C[C@H]2[C@@H]3CCC4=CC(=O)CC[C@@H]4[C@H]3CC[C@@]21CC [Gestodene (GSD), Gestodene]
minimal dose for inhibition of ovulation, p.o. dose/day (ovulation [1]): 30 µg and 40 to 50 µg

C#C[C@]1(O)CC[C@H]2[C@@H]3CCC4=CC(=O)CC[C@@H]4[C@H]3CC[C@@]21CC [LNG, levonorgestrel]
Ovulation count, absolute ([2]; LNG 0.01 mg s.c.): 35 | Ovulation count, mean ([2]; LNG 0.01 mg s.c.): 7.0 ± 2.0 | oocytes ovulated ([3]; Example 2, LNG on its own (0.01 mg s.c.), 10 animals per group): 68 oocytes | oocytes ovulated ([3]; treatment group (b), 0.1 mg of levonorgestrel, 5 animals): 35 oocytes

C#C[C@]1(O)CC[C@H]2[C@@H]3CCC4=CCCC[C@@H]4[C@H]3CC[C@@]21C [Lynestrenol]
minimal dose for inhibition of ovulation, p.o. dose/day (ovulation [1]): 2 mg^33

CC(=O)[C@@]1(C)CC[C@H]2[C@@H]3C=C(C)C4=CC(=O)CC[C@]4(C)[C@H]3CC[C@@]21C [Medrogestone]
minimal dose for inhibition of ovulation, p.o. dose/day (ovulation [1]): 10 mg^33

CC(=O)O[C@]1(C(C)=O)CC[C@H]2[C@@H]3C[C@H](C)C4=CC(=O)CC[C@]4(C)[C@H]3CC[C@@]21C [Medroxyprogesterone acetate (MPA), Medroxyprogesterone acetate]
minimal dose for inhibition of ovulation, p.o. dose/day (ovulation [1]): 10 mg^33

Cc1cnc(NC(=O)C2=C(O)c3ccccc3S(=O)(=O)N2C)s1 [Meloxicam, meloxicam]
Ovulation count, absolute ([2]; COX inhibitor 2 mg p.o.): 28 | Ovulation count, mean ([2]; COX inhibitor 2 mg p.o.): 5.6 ± 2.5 | delay in ovulation (ovulation [4]; 30 mg per patient and day on 5 successive days (Bata et al.)): 5 days

CC(=O)O[C@]1(C(C)=O)CC[C@H]2[C@@H]3C=C(C)C4=CC(=O)CC[C@@H]4[C@H]3CC[C@@]21C [Nomegestrol acetate (NOMAc), Nomegestrol acetate]
minimal dose for inhibition of ovulation, p.o. dose/day (ovulation [1]): 2.5 mg^32

C#C[C@]1(OC(C)=O)CC[C@H]2[C@@H]3CCC4=CC(=O)CC[C@@H]4[C@H]3CC[C@@]21C [Norethisterone acetate (NETA), Norethisterone acetate]
minimal dose for inhibition of ovulation, p.o. dose/day (ovulation [1]): 0.5 mg^33

C#C[C@]1(O)CC[C@H]2[C@@H]3CCC4=CC(=O)CC[C@@H]4[C@H]3CC[C@@]21C [Norethisterone]
minimal dose for inhibition of ovulation, p.o. dose/day (ovulation [1]): 0.5 mg^33

CN1C(C(=O)Nc2ccccn2)=C(O)c2ccccc2S1(=O)=O [Piroxicam, piroxicam]
Fertilization rate (% ± SD) ([5]; 2 × 0.15 mg/animal p.o.): 19 ± 8% | Fertilization rate (% ± SD) ([5]; 2 × 0.3 mg/animal p.o.): 14 ± 18% | Fertilization rate (% ± SD) ([5]; 2 × 0.5 mg/animal p.o.): 12 ± 7% | Progesterone in proestrus at 19.00 h—mean ± SD (n = 10) ([6]; 0.5 mg p.o.): 237 ± 49 | Progesterone in proestrus at 19.00 h—mean ± SD (n = 10) ([6]; 1 mg p.o.): 183 ± 67 | Progesterone in proestrus at 19.00 h—mean ± SD (n = 10) ([6]; 2 mg p.o.): 122 ± 94 | Ovulation count, absolute ([2]; COX inhibitor 2 mg p.o.): 9 | Ovulation count, mean ([2]; COX inhibitor 2 mg p.o.): 1.8 ± 0.4 | oocytes ovulated ([2]; treatment group (c), 2 mg piroxicam on its own): 9 oocytes | oocytes ovulated ([3]; 1 mg piroxicam alone): 28 oocytes | oocytes ovulated ([3]; Example 2, 0.5 mg piroxicam p.o., 10 animals per group): 85 oocytes | oocytes ovulated ([3]; Example 2, 1 mg piroxicam p.o., 10 animals per group): 56 oocytes | oocytes ovulated ([3]; Example 2, 2 mg piroxicam p.o., 10 animals per group): 30 oocytes

CC(=O)[C@H]1CC[C@H]2[C@@H]3CCC4=CC(=O)CC[C@]4(C)[C@H]3CC[C@]12C [Progesterone]
minimal dose for inhibition of ovulation, p.o. dose/day (ovulation [1]): 300 mg^33

CCC(=O)[C@@]1(C)CC[C@H]2[C@@H]3CCC4=CC(=O)CCC4=C3CC[C@@]21C [Promegestone]
minimal dose for inhibition of ovulation, p.o. dose/day (ovulation [1]): 0.5 mg^33

C[C@H](O)C(=O)[C@@]1(C)CC[C@H]2[C@@H]3CCC4=CC(=O)CCC4=C3CC[C@@]21C [Trimegestone]
minimal dose for inhibition of ovulation, p.o. dose/day (ovulation [1]): 0.5 mg^33

CS(=O)(=O)c1ccc(C2=C(c3ccccc3)C(=O)OC2)cc1 [rofecoxib]
delay in ovulation (ovulation [4]; [7]): over 48 hours | patients with delay in ovulation of over 48 hours (ovulation [4]; [7]): 4 of 6
